Source: article PMC5723347, “Silencing of D-Lactate Dehydrogenase Impedes Glyoxalase System and Leads to Methylglyoxal Accumulation and Growth Inhibition in Rice” (Frontiers in Plant Science, 2017)
Where two headings read alike, the source gives them in different places.

Test system: T1, OsD-LDH-FL
T1 construct: full-length 561 residues including mitochondrial targeting peptide, N-terminal GST tag kept (pGEX-6P-1), 87 kDa fusion, expressed in E. coli BL21 (DE3)
Experiment: spectrophotometric cytochrome c reduction at […] nm, Hanes-Woolf
Type: biochemical, Oryza sativa subsp. indica
Conditions: 200 μM cytochrome c as electron acceptor, pH 8.35, 30°C, 50 mM potassium phosphate

Km (read-out: D-2-HB / KM) [µM] | Km (read-out: D-LACTATE / KM) [µM] | SMILES
11 ± 0.34 |  | CC[C@@H](O)C(=O)O [D-2-hydroxybutyrate]
 | 41.4 ± 2.93 | C[C@@H](O)C(=O)O [D-lactate]
